The values that follow come from patent US7232912B2, “Indazole compounds, pharmaceutical compositions, and methods for mediating or inhibiting cell proliferation” (Agouron Pharmaceuticals, Inc., priority 2000, dated 2007).

The structures appear in SMILES notation. pIC50, pKi: −log10 of the molar value.

For one assay, the target named is CDK4/cyclin D3 (Homo sapiens, UniProt P11802). Kind of assay: Inhibition of CDK4/Cyclin D Retinoblastoma Kinase Activity. As to conditions: apparent Ki. The assay is classed as biochemical. As for the experimental part: (§1) Cyclin-dependent kinase activity was measured by quantifying the enzyme-catalyzed, time-dependent incorporation of radioactive phosphate from [^32P]ATP or [^33P]ATP into a protein substrate. Unless noted otherwise, assays were performed in 96-well plates in a total volume of 50 μL, in the presence of 10 mM HEPES (N-[2-hydroxyethyl]piperazine-N′-[2-ethanesulfonic acid]) (pH 7.4), 10 mM MgCl2, 25 μM adenosine triphosphate (ATP), 1 mg/mL ovalbumin, 5 μg/mL leupeptin, 1 mM dithiothreitol, 10 mM beta-glycerophosphate, 0.1 mM sodium vanadate, 1 mM sodium fluoride, 2.5 mM ethylene glycol-bis(β-aminoethyl ethKer)-N,N,N′N′-tetraacetic acid (EGTA), 2% (v/v) dimethylsulfoxide, and 0.03–0.4 μCi [^32/33P]ATP per reaction. Reactions were initiated with appropriate enzyme, incubated at 30° C., and terminated after 20 minutes by the addition of ethylenediaminetetraacetic acid (EDTA) to 250 mM. The phosphorylated substrate was then captured on a nitrocellulose or phosphocellulose membrane using a 96-well filtration manifold, and unincorporated radioactivity was removed by repeated washing with 0.85% phosphoric acid. Radioactivity was quantified by exposing the dried membranes to a phosphorimager.
(§2) Apparent Ki values were measured by assaying enzyme activity in the presence of different inhibitor compound concentrations and subtracting the background radioactivity measured in the absence of enzyme. Inhibition data were fit to an equation for competitive inhibition using Kaleidagraph (Synergy Software), or were fit to an equation for competitive tight-binding inhibition using the software KineTic (BioKin, Ltd.).
Inhibition of CDK4/Cyclin D Retinoblastoma Kinase Activity
A complex of human CDK4 and cyclin D3, or a complex of human CDK4 and genetically truncated (1–264) cyclin D3, was purified using traditional biochemical chromatographic techniques from insect cells that had been co-infected with the corresponding baculovirus expression vectors (see e.g., Meijer and Kim, “Chemical Inhibitors of Cyclin-Dependent Kinases,” Methods in Enzymol,. vol. 283 (1997), pp. 113–128.). The enzyme complex (5 or 50 nM) was assayed with 0.3–0.5 μg of purified recombinant retinoblastoma protein fragment (Rb) as a substrate. The engineered Rb fragment (residues 386–928 of the native retinoblastoma protein; 62.3 kDa) contains the majority of the phosphorylation sites found in the native 106-kDa protein, as well as a tag of six histidine residues for ease of purification. Phosphorylated Rb substrate was captured by microfiltration on a nitrocellulose membrane and quantified using a phosphorimager as described above. For measurement of tight-binding inhibitors, the enzyme complex concentration was lowered to 5 nM, and the assay duration was extended to 60 minutes, during which the time-dependence of product formation was linear.

For the next assay, the target named is T1, CDK2/cyclin A (Homo sapiens, UniProt P24941).
T1 construct: made in house; host or cells: CDK2: insect cells (baculovirus); cyclin A: E. coli
Kind of assay: Inhibition of CDK2/Cyclin A Retinoblastoma Kinase Activity. The assay is classed as biochemical. As to conditions: apparent Ki. As for the experimental part:
as §1, §2
Inhibition of CDK2/Cyclin A Retinoblastoma Kinase Activity
CDK2 was purified using published methodology (Rosenblatt et al., “Purification and Crystallization of Human Cyclin-dependent Kinase 2,” J. Mol. Biol., vol. 230, 1993, pp. 1317–1319) from insect cells that had been infected with a baculovirus expression vector. […] A complex of CDK2 and proteolyzed cyclin A was prepared and purified by gel filtration. The substrate for this assay was the same Rb substrate fragment used for the CDK4 assays, and the methodology of the CDK2/cyclin A and the CDK4/cyclin D3 assays was essentially the same, except that CDK2 was present at 150 nM or 5 nM. Ki values were measured as described above.

The target in a further assay is T2, FGFR1 tyrosine kinase (Homo sapiens, UniProt P11362, C488A/C584S/L457V).
T2 construct: the cytosolic domain of FGFR1 tyrosine kinase (amino acids 456–766); made in house; host or cells: Sf9 insect cells (baculovirus)
Kind of assay: Inhibition of phosphorylated FGF receptor tyrosine kinase activity. It is filed as biochemical. As to conditions: for inhibition at 1 µM: read-out: FGF % Inhib. at 1 μM. As for the experimental part: Inhibition of Phosphorylated FGF Receptor and LCK Tyrosine Kinase Activity
Cloning, expression and purification of the cytosolic domain of FGFR1 tyrosine kinase (amino acids 456–766) containing three amino acid substitutions (L457V, C488A, and C584S) were conducted as previously described (Mohammadi, M., Schlessinger, J., & Hubbard, S. R. (1996) Cell 86, 577–587). This domain was expressed in Sf9 insect cells using a baculovirus expression vector, and protein was purified using conventional techniques. The LCK tyrosine kinase was expressed in insect cells as an N-terminal deletion starting from amino acid 223 to the end of the protein at amino acid 509. The N-terminus of the protein also had two amino acid substitutions, P223M and C 224D. Kinases were purified using conventional chromatographic methods.
Tyrosine kinase activity was measured using a coupled, continuous spectrophotometric assay, in which production of phosphorylated poly(Glu, Tyr; 4:1) substrate and ADP is coupled to the pyruvate kinase-catalyzed transfer of a phosphate from phosphoenolpyruvate to ADP, with generation of pyruvate and regeneration of ATP. Pyruvate production is in turn coupled to the lactate dehydrogenase-catalyzed reduction of pyruvate to form lactate, with concomitant conversion of NADH to NAD+. Loss of NADH is monitored by measuring absorbance at 340 nm (see e.g., Technikova-Dobrova et al., “Spectrophotometric determination of functional characteristics of protein kinases with coupled enzymatic assay,” FEBS Letters, vol. 292 (1991), pp. 69–72). Enzyme activity was measured in the presence of 200 mM HEPES (pH 7.5), 2 mM phosphoenolpyruvate, 0.3 mM NADH, 20 mM MgCl2, 100 μM ATP, 5 mM DTT, 5.1 or 25 mM poly (Glu,Tyr) 4:1 for P-FGF or P-LCK assays, respectively, and 15 units/mL each of pyruvate kinase and lactate dehydrogenase. Phosphorylated FGF receptor kinase was present at 100 nM and phosphorylated LCK kinase was present at 50 nM. Assays were performed under initial rate conditions at 37° C., and rates were corrected for any background rate measured in the absence of enzyme. Percent inhibition was calculated relative to control enzyme assayed in the presence of 2% (v/v) DMSO.

In a further assay the test system is HCT 116 cell line. Nature of the assay: Inhibition of Cell Growth (MTT tetrazolium salt assay). It is filed as cell-based. As to conditions: Homo sapiens, HCT 116, MTT; for pIC50: 50% inhibition of growth, read-out: HCT 116 IC50; for IC90: read-out: HCT 116 IC90. The method, then: Inhibition of Cell Growth: Assessment of Cytotoxicity
Inhibition of cell growth was measured using the tetrazolium salt assay, which is based on the ability of viable cells to reduce 3-(4,5-dimethylthiazol-2-yl)-2,5-[2H]-diphenyltetrazolium bromide (MTT) to formazan (Mossman, Journal of Immunological Methods, vol. 65 (1983), pp. 55–58). The water-insoluble purple formazan product was then detected spectrophotometrically. The HCT 116 cell line was grown in 96-well plates. Cells were plated in the appropriate medium at a volume of 135 μl/well in McCoy's 5A Medium. Plates were incubated for four hours before addition of inhibitor compounds. Different concentrations of inhibitor compounds were added in 0.5% (v/v) dimethylsulfoxide (15 μL/well), and cells were incubated at 37° C. (5% CO2) for four to six days (depending on cell type). At the end of the incubation, MTT was added to a final concentration of 0.2 mg/mL, and cells were incubated for 4 hours more at 37° C. After centrifugation of the plates and removal of medium, the absorbance of the formazan (solubilized in dimethylsulfoxide) was measured at 540 nm. The concentration of inhibitor compound causing 50% inhibition of growth was determined from the linear portion of a semi-log plot of inhibitor concentration versus percentage inhibition. All results were compared to control cells treated only with 0.5% (v/v) dimethylsulfoxide.
(Tetrazolium assays rely on reduction of a dye to a coloured formazan, in cell work by metabolically active cells.)

CDK4/cyclin D3, sequence (P11802 2-303 limits assumed): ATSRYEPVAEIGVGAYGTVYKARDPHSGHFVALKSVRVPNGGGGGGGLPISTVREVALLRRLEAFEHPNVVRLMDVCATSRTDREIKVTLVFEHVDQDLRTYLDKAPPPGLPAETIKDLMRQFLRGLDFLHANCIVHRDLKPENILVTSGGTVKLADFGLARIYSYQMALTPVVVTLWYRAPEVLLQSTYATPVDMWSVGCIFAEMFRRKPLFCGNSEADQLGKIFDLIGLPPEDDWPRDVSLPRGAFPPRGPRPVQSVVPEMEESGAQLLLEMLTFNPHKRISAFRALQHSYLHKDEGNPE
CDK4/cyclin D3, sequence (P30281 1-264 limits assumed, further chain): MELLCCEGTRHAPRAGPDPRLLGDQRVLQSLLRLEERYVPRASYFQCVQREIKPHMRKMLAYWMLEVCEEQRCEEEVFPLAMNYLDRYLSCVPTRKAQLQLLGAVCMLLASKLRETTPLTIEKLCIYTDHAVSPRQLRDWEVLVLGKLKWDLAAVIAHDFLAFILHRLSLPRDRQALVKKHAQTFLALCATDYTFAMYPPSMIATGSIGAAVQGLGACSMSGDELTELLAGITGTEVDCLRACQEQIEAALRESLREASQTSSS
T2 sequence (P11362 456-766 L457V/C488A/C584S): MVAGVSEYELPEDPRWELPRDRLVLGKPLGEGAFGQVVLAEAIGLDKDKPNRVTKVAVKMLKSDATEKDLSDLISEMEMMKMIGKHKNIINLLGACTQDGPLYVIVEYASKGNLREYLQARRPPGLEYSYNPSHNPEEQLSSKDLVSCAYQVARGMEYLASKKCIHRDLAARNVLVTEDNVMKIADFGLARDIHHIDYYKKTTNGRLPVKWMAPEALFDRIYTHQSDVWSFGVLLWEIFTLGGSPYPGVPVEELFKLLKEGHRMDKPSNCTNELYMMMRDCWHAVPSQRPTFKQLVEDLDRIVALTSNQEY

`Cc1c(-c2ccncc2)cncc1-c1ccc2[nH]nc(-c3nc4c(CN(C)C)cccc4[nH]3)c2c1` [Example 68, Dimethyl-{2-[5-(4-methyl-[3,4′]bipyridinyl-5-yl)-1H-indazol-3-yl]-1H-benzoimidazol-4-ylmethyl}-amine]: the figures for the pKi on CDK4/cyclin D3 and on CDK2/cyclin A were 8.33 and 8.96, respectively. On FGFR1 tyrosine kinase, the inhibition at 1 µM came out at 12.6%. The negative logarithm of the IC50 (pIC50) (usually the negative decadic logarithm of the IC50, by convention in mol/L) with HCT 116 cell line was 6.80. Besides, the IC90 (commonly the point of the concentration-response curve where the effect stands at 90%) in the assay with HCT 116 cell line turned out to be 0.6 µM.
With `Cc1c(O)cccc1-c1ccc2[nH]nc(-c3nc4c(CO)cccc4[nH]3)c2c1` [Example 23, 3-[3-(4Hydroxymethyl-1H-benzoimidazol-2-yl)-1H-indazol-5-yl]-2-methyl-phenol], the figures for the pKi on CDK4/cyclin D3, on CDK2/cyclin A and on FGFR1 tyrosine kinase were 7.19, 7.39 and 6.10, respectively. The pIC50 with HCT 116 cell line is 5.40. Also, the IC90 with HCT 116 cell line is 5 µM.
For `c1ccc2c(-c3ccc4[nH]nc(-c5nc6c(CN7CCCC7)cccc6[nH]5)c4c3)cncc2c1` [Example 33, 4-[3-(4Pyrrolidin-1-ylmethyl-1H-benzoimidazol-2-yl)-1H-indazol-5-yl]-isoquinoline], the values for the pKi at CDK4/cyclin D3 and on CDK2/cyclin A were 8.96 and 9.00, respectively. Further, the inhibition at 1 µM at FGFR1 tyrosine kinase stood at 51.6%. Also, the pIC50 with HCT 116 cell line was 7.26. For the same molecule, the IC90 in the assay on HCT 116 cell line is 0.16 µM.
The like results for `CN1CCN(c2ccc3[nH]c(-c4n[nH]c5ccc(-c6cncc7ccccc67)cc45)nc3c2)CC1` [Example 20, 4-{3-[5-(4-Methyl-piperazin-1-yl)-1H-benzoimidazol-2-yl]-1H-indazol-5-yl}-isoquinoline] were, in that order, 8.68, 9.03, 96.9%, 7.15 and 0.4 µM.
For `COc1c(O)cccc1-c1ccc2[nH]nc(-c3nc4ccccc4[nH]3)c2c1` [Example 47, 3-[3-(1H-benzoimidazol-2-yl)-1H-indazol-5-yl]-2-methoxy-phenol], in that order: 7.03, 7.00, 81.1%, 5.68 and 5 µM.
For `Oc1ccc(F)c(-c2ccc3[nH]nc(-c4nc5ccccc5[nH]4)c3c2)c1F` [Example 49, 3-[-3-(1H-Benzoimidazol-2-yl)-1H-indazol-5-yl]-2,4-difluoro-phenol], in that order: 7.02, 7.31, 86.7%, 5.64 and 4.8 µM.
Turning to `Cc1ccncc1-c1ccc2[nH]nc(/C=C/c3ccccc3)c2c1` [Example 43, 5-(4Methyl-pyridin-3-yl)-3-(E)styryl-1H-indazole], on CDK4/cyclin D3, the pKi (commonly the negative decadic logarithm of the Ki, by convention in mol/L) was 7.82. The pKi at CDK2/cyclin A is 7.54. Also, the inhibition at 1 µM on FGFR1 tyrosine kinase is 59.6%. In the assay with HCT 116 cell line, the pIC50 was 5.72 and the IC90 came to 5 µM.
`OCCc1cccc2[nH]c(-c3n[nH]c4ccc(-c5cncc6ccccc56)cc34)nc12` [Example 30]: the pKi at CDK4/cyclin D3 is 7.96. For the same molecule, at CDK2/cyclin A, the pKi is 9.00. On FGFR1 tyrosine kinase, the inhibition at 1 µM came out at 52.4%. In the assay with HCT 116 cell line, the pIC50 was 6.74 and the IC90 was determined as 0.62 µM.
For `c1ccc2c(-c3ccc4[nH]nc(-c5nc6c(CCN7CCCC7)cccc6[nH]5)c4c3)cncc2c1` [Example 34, 4-{3-[4-(2-Pyrrolidin-1-yl-ethyl)-1H-benzoimidazol-2-yl]-1H-indazol-5-yl]-isoquinoline], in that order: 7.72, 9.00, 26.9%, 6.70 and 0.58 µM.
Turning to `CC(CO)CNCc1cccc2[nH]c(-c3n[nH]c4ccc(-c5cncc6ccccc56)cc34)nc12` (centres unmarked) [Example 35, 3-{[2-(5-Isoquinolin-4-yl-1H-indazol-3-yl)-1H-benzoimidazol-4-ylmethyl]-amino}-2-methyl-propan-1-ol], the pKi at CDK4/cyclin D3 is 8.49. On CDK2/cyclin A, the pKi is 9.00. Moreover, at FGFR1 tyrosine kinase, the inhibition at 1 µM stood at 40.5%. Also, in the assay on HCT 116 cell line, the pIC50 is 6.89 and the IC90 was 0.37 µM.
For the molecule `Clc1cccc2[nH]c(-c3n[nH]c4ccc(-c5cncc6ccccc56)cc34)nc12` [Example 19, 4-[3-(4-Chloro-1H-benzoimidazol-2-yl)-1H-indazol-5-yl]-isoquinoline], on CDK4/cyclin D3, the pKi is 7.27. Also, the pKi at CDK2/cyclin A is 9.00. The inhibition at 1 µM at FGFR1 tyrosine kinase is 31.3%. For the same molecule, in the assay on HCT 116 cell line, the pIC50 was 6.11 and the IC90 was 1.6 µM.
`C(=C\c1n[nH]c2ccc(-c3ccnc4ccccc34)cc12)/c1ccccc1` [Example 17, 4-[3-((E)-Styryl)-1H-indazol-5-yl]-quinoline]: the pKi on CDK2/cyclin A is 5.85. Moreover, on FGFR1 tyrosine kinase, the inhibition at 1 µM stood at 42.6%. Also, in the assay with HCT 116 cell line, the pIC50 is 5.49 and the IC90 worked out at 5 µM.
Consider `C(=C\c1n[nH]c2ccc(-c3ccc4ccncc4c3)cc12)/c1ccccc1` [Example 24, 7-[3-((E)Styryl)-1H-indazol-5-yl]-isoquinoline], for which the pKi at CDK4/cyclin D3 is 6.16; at CDK2/cyclin A, 5.96. Besides, on FGFR1 tyrosine kinase, the inhibition at 1 µM came to 45.4%.
